PubChem BioAssay (NCI)
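Dose response: 5 concentrations. Exposure: 48 h. Format: 96-well plates. Endpoint: linear interpolation; highest concentration if not reached. Here, GI50 denotes the concentration required for 50% inhibition of growth. TGI: concentration producing complete growth inhibition.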

Columns and labels:
Assay in all cases: NCI-60 cell line screen, 48 h
SK-MEL-2 melanoma = test system: SK-MEL-2 melanoma
OVCAR-5 ovarian = test system: OVCAR-5 ovarian
SNB-19 CNS = test system: SNB-19 CNS
K-562 leukemia = test system: K-562 leukemia
TK-10 renal = test system: TK-10 renal
PC-3 prostate = test system: PC-3 prostate
HCT-15 colon = test system: HCT-15 colon
RXF 393 renal = test system: RXF 393 renal
ACHN renal = test system: ACHN renal
SN12C renal = test system: SN12C renal
HT29 colon = test system: HT29 colon
HCC-2998 colon = test system: HCC-2998 colon
SNB-75 CNS = test system: SNB-75 CNS
SK-MEL-28 melanoma = test system: SK-MEL-28 melanoma
KM12 colon = test system: KM12 colon
A498 renal = test system: A498 renal
NCI-H226 lung = test system: NCI-H226 lung
RPMI-8226 leukemia = test system: RPMI-8226 leukemia
HS 578T breast = test system: HS 578T breast
SK-MEL-5 melanoma = test system: SK-MEL-5 melanoma
SW-620 colon = test system: SW-620 colon
CCRF-CEM leukemia = test system: CCRF-CEM leukemia
HL-60(TB) leukemia = test system: HL-60(TB) leukemia
MDA-MB-435 = test system: MDA-MB-435
DU-145 prostate = test system: DU-145 prostate
MDA-MB-231 breast = test system: MDA-MB-231 breast
UO-31 renal = test system: UO-31 renal
OVCAR-3 ovarian = test system: OVCAR-3 ovarian
BT-549 breast = test system: BT-549 breast
COLO 205 colon = test system: COLO 205 colon
CAKI-1 renal = test system: CAKI-1 renal
MOLT-4 leukemia = test system: MOLT-4 leukemia
HOP-62 NSCLC = test system: HOP-62 NSCLC

## Nc1cc(-c2c[nH]c3ccc(F)cc23)nc2cc(-c3c[nH]c4ccc(F)cc34)nn12
SK-MEL-2 melanoma
  GI50: 14.6 µM
  TGI: 35.3 µM
OVCAR-5 ovarian
  GI50: 1.83 µM
  TGI: 3.77 µM
SNB-19 CNS
  GI50: 3.03 µM
  TGI: 8.97 µM
K-562 leukemia
  GI50: 2.92 µM
  TGI: > 100 µM
TK-10 renal
  GI50: 2.22 µM
  TGI: 4.19 µM
PC-3 prostate
  GI50: 2.11 µM
  TGI: 5.31 µM
HCT-15 colon
  GI50: 1.79 µM
  TGI: 3.69 µM
RXF 393 renal
  GI50: 1.88 µM
  TGI: 3.48 µM
ACHN renal
  GI50: 1.88 µM
  TGI: 3.46 µM
SN12C renal
  GI50: 1.92 µM
  TGI: 3.73 µM
HT29 colon
  GI50: 1.8 µM
  TGI: 3.31 µM
HCC-2998 colon
  GI50: 1.95 µM
  TGI: 3.47 µM
SNB-75 CNS
  GI50: 16.3 µM
  TGI: 36.6 µM
SK-MEL-28 melanoma
  GI50: 1.83 µM
  TGI: 3.33 µM
KM12 colon
  GI50: 2 µM
  TGI: 4.26 µM
A498 renal
  GI50: 1.66 µM
  TGI: 3.25 µM
NCI-H226 lung
  GI50: 2.28 µM
  TGI: 5.52 µM
RPMI-8226 leukemia
  GI50: 3.05 µM
  TGI: > 100 µM
HS 578T breast
  GI50: 2.35 µM
  TGI: 5.71 µM
SK-MEL-5 melanoma
  GI50: 1.84 µM
  TGI: 3.28 µM
SW-620 colon
  GI50: 1.78 µM
  TGI: 3.3 µM
CCRF-CEM leukemia
  GI50: 3.13 µM
  TGI: > 100 µM
HL-60(TB) leukemia
  GI50: 1.94 µM
  TGI: 5.36 µM
MDA-MB-435
  GI50: 1.74 µM
  TGI: 3.39 µM
DU-145 prostate
  GI50: 2.21 µM
  TGI: 4.73 µM
MDA-MB-231 breast
  GI50: 1.85 µM
  TGI: 3.49 µM
UO-31 renal
  GI50: 1.68 µM
  TGI: 3.45 µM
OVCAR-3 ovarian
  GI50: 1.75 µM
  TGI: 3.19 µM
BT-549 breast
  GI50: 13.3 µM
  TGI: 34.9 µM
COLO 205 colon
  GI50: 1.74 µM
  TGI: 3.15 µM
CAKI-1 renal
  GI50: 2.03 µM
  TGI: 5.29 µM
MOLT-4 leukemia
  GI50: 2.33 µM
  TGI: 7.29 µM
HOP-62 NSCLC
  GI50: 2.06 µM
  TGI: 5.85 µM
